Experimental data: patent US5852210A, “Cinnamic acid derivatives” (G. D. Searle & Co., priority 1997, dated 1998)
Counter-ions that a name gives are not always drawn.

Columns and labels:
[1] = biological target: T1, Human vitronectin receptor (αv β3) (Homo sapiens, UniProt P05106+P06756); experiment: Vitronectin adhesion assay (solid phase receptor assay, αvβ3); assay type: binding; details: inhibition of binding of biotinylated human vitronectin (1 nM) to purified receptor; Table I; read-out: AvB3 IC50
T1 construct: Human vitronectin receptor (αv β3) was purified from human placenta; from tissue; host or cells: human placenta
T1 sequence (P06756 31-889 limits assumed): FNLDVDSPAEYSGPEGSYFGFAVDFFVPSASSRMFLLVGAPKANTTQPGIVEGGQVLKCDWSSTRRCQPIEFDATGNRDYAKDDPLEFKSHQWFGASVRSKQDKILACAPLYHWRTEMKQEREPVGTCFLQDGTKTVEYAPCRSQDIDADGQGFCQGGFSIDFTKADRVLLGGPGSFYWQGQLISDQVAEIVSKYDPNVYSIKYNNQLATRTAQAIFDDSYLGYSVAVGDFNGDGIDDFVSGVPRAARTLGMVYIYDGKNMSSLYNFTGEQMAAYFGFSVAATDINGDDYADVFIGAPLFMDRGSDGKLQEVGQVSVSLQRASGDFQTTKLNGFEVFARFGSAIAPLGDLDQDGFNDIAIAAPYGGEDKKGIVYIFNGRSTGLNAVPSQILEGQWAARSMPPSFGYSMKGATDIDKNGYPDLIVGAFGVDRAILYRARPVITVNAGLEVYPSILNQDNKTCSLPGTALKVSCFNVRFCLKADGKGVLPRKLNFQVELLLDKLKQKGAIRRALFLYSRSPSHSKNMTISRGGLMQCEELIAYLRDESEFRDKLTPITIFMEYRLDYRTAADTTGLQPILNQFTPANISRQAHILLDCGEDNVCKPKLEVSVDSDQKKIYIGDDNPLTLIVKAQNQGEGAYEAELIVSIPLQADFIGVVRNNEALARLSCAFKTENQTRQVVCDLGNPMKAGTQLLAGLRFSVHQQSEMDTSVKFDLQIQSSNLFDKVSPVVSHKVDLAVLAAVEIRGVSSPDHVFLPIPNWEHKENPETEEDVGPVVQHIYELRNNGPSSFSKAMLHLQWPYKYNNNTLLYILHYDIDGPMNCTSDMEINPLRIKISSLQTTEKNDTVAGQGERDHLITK
T1 sequence (P06756 891-1048 limits assumed): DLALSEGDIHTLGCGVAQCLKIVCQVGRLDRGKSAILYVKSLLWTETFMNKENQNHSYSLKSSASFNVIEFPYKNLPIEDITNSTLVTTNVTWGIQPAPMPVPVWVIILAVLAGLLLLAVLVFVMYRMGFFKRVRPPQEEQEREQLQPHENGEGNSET
T1 sequence (P05106 27-788): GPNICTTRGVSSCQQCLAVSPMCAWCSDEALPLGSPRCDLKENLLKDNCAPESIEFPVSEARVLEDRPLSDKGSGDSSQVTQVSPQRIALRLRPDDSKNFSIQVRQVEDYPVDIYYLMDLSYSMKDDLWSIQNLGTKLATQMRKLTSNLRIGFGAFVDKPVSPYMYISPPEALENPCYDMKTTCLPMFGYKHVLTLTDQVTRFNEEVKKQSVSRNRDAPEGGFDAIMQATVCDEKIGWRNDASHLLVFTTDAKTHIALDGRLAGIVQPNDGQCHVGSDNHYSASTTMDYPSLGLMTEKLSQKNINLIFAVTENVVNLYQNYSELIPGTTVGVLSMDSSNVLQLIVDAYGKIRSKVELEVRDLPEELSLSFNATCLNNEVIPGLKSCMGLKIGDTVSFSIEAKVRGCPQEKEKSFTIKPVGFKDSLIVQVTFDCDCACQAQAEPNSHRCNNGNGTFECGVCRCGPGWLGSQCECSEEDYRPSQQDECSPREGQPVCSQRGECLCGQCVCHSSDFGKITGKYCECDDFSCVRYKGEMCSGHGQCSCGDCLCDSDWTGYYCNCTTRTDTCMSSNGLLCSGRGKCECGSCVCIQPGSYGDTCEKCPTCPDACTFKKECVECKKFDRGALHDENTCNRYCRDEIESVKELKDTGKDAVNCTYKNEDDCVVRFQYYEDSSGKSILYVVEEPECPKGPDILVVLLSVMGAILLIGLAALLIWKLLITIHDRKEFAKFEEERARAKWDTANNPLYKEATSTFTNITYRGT
Protocol: (§1) The activity of the compounds of the present invention was tested in the following assays.
Human vitronectin receptor (αv β3) was purified from human placenta as previously described [Pytela et al., Methods in Enzymology, 144:475-489 (1987)]. Human vitronectin was purified from fresh frozen plasma as previously described [Yatohgo et al., Cell Structure and Function, 13:281-292 (1988)]. Biotinylated human vitronectin was prepared by coupling NHS-biotin from Pierce Chemical Company (Rockford, Ill.) to purified vitronectin as previously described [Charo et al., J. Biol. Chem., 266(3):1415-1421 (1991)]. Assay buffer, OPD substrate tablets, and RIA grade BSA were obtained from Sigma (St. Louis, Mo.). Anti-biotin antibody was obtained from Calbiochem (La Jolla, Calif.). Linbro microtiter plates were obtained from Flow Labs (McLean, Va.). ADP reagent was obtained from Sigma (St. Louis, Mo.).
(§2) Solid Phase Receptor Assays
This assay was essentially the same as previously reported [Niiya et al., Blood, 70:475-483 (1987)]. The purified human vitronectin receptor (αv β3) was diluted from stock solutions to […] in Tris-buffered saline containing 1.0 mM Ca^++, Mg^++, and Mn^++, pH 7.4 (TBS^+++). The diluted receptor was immediately transferred to Linbro microtiter plates at 100 μL/well (100 ng receptor/well). The plates were sealed and incubated overnight at 4° C. to allow the receptor to bind to the wells. All remaining steps were at room temperature. The assay plates were emptied and 200 μL, of 1% RIA grade BSA in TBS^+++ (TBS^+++ /BSA) were added to block exposed plastic surfaces. Following a 2 hour incubation, the assay plates were washed with TBS^+++ using a 96 well plate washer. Logarithmic serial dilution of the test compound and controls were made starting at a stock concentration of 2 mM and using 2 nM biotinylated vitronectin in TBS^+++ /BSA as the diluent. This premixing of labeled ligand with test (or control) ligand, and subsequent transfer of 50 μL aliquots to the assay plate was carried out with a CETUS Propette robot; the final concentration of the labeled ligand was 1 nM and the highest concentration of test compound was 1.0×10^-4 M. The competition occurred for two hours after which all wells were washed with a plate washer as before. Affinity purified horseradish peroxidase labeled goat anti-biotin antibody was diluted 1:3000 in TBS^+++ /BSA and 125 μL were added to each well. After 30 minutes, the plates were washed and incubated with OPD/H2 O2 substrate in 100 mM/L Citrate buffer, pH 5.0. The plate was read with a microtiter plate reader at a wavelength of 450 nm and when the maximum-binding control wells reached an absorbance of about 1.0, the final A450 were recorded for analysis. The data were analyzed using a macro written for use with the EXCEL™ spreadsheet program. The mean, standard deviation, and % CV were determined for duplicate concentrations. The mean A450 values were normalized to the mean of four maximum-binding controls (no competitor added) (B-MAX). The normalized values were subjected to a four parameter curve fit algorithm [Rodbard et al., Int.

[2] = biological target: T2, Human fibrinogen receptor (αIIb β3) (Homo sapiens, UniProt P05106+P08514); experiment: Purified IIb/IIIa receptor assay (solid phase receptor assay); details: inhibition of binding of biotinylated human vitronectin (1 nM) to purified receptor; Table I
T2 construct: Human fibrinogen receptor (αIIb β3) was purified from outdated platelets; from tissue; host or cells: human outdated platelets
T2 sequence (P08514 32-887 limits assumed): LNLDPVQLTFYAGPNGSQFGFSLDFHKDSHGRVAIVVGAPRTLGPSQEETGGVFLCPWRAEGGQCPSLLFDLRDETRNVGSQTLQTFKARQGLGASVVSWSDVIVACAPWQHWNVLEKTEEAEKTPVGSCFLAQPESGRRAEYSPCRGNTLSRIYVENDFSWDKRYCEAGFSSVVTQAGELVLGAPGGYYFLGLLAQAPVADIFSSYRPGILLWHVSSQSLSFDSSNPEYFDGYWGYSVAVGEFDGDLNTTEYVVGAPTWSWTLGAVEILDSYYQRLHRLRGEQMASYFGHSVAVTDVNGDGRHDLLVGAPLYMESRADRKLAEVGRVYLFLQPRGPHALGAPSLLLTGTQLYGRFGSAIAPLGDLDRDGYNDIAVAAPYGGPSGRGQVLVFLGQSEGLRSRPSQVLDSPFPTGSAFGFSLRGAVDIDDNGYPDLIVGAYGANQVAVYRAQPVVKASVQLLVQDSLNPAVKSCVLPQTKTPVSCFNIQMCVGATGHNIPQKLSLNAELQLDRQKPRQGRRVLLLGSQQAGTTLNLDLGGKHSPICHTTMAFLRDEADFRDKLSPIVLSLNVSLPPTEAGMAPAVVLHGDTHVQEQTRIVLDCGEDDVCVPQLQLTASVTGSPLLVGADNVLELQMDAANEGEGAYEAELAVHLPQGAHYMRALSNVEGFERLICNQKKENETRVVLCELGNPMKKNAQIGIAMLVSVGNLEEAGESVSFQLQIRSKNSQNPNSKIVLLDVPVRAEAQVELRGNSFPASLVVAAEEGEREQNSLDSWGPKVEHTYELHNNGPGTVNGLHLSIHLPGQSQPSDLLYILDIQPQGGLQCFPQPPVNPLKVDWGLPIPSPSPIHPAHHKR
T2 sequence (P08514 891-1039 limits assumed): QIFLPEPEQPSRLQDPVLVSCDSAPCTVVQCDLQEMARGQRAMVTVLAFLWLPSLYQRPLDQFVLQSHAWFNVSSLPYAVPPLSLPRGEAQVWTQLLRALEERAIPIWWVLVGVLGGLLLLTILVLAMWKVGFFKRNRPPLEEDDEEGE
T2 sequence (P05106 27-788): as the sequence (P05106 27-788) above
Protocol: as §1
Human fibrinogen receptor (αIIb β3) was purified from outdated platelets. (Pytela, R., Pierschbacher, M. D., Argraves, S., Suzuki, S., and Rouslahti, E. "Arginine-Glycine-Aspartic acid adhesion receptors", Methods in Enzymology 144(1987):475-489.) Human vitronectin was purified from fresh frozen plasma as described in Yatohgo, T., Izumi, M., Kashiwagi, H., and Hayashi, M., "Novel purification of vitronectin from human plasma by heparin affinity chromatography," Cell Structure and Function 13(1988):281-292. Biotinylated human vitronectin was prepared by coupling NHS-biotin from Pierce Chemical Company (Rockford, Ill.) to purified vitronectin as previously described. (Charo, I. F., Nannizzi, L., Phillips, D. R., Hsu, M. A., Scarborough, R. M., "Inhibition of fibrinogen binding to GP IIb/IIIa by a GP IIIa peptide", J. Biol. Chem. 266(3) (1991): 1415-1421.) Assay buffer, OPD substrate tablets, and RIA grade BSA were obtained from Sigma (St. Louis, Mo.). Anti-biotin antibody was obtained from Calbiochem (La Jolla, Calif.). Linbro microtiter plates were obtained from Flow Labs (McLean, Va.). ADP reagent was obtained from Sigma (St. Louis, Mo.).
as §2
This assay is essentially the same reported in Niiya, K., Hodson, E., Bader, R., Byers-Ward, V. Koziol, J. A., Plow, E. F. and Ruggeri, Z. M., "Increased surface expression of the membrane glycoprotein IIb/IIIa complex induced by platelet activation: Relationships to the binding of fibrinogen and platelet aggregation", Blood 70 (1987):475-483. The purified human fibrinogen receptor (αIIb β3) was diluted from stock solutions to 1.0 μg/mL in Tris-buffered saline containing 1.0 mM Ca^++, Mg^++, and Mn^++, pH 7.4 (TBS^+++). The diluted receptor was immediately transferred to Linbro microtiter plates at 100 μL/well (100 ng receptor/well). The plates were sealed and incubated overnight at 4° C. to allow the receptor to bind to the wells. All remaining steps were at room temperature. The assay plates were emptied and 200 μL of 1% RIA grade BSA in TBS^+++ (TBS^+++ /BSA) were added to block exposed plastic surfaces. Following a 2 hour incubation, the assay plates were washed with TBS^+++ using a 96 well plate washer. Logarithmic serial dilution of the test compound and controls were made starting at a stock concentration of 2 mM and using 2 nM biotinylated vitronectin in TBS^+++ /BSA as the diluent. This premixing of labeled ligand with test (or control) ligand, and subsequent transfer of 50 μL aliquots to the assay plate was carried out with a CETUS Propette robot; the final concentration of the labeled ligand was 1 nM and the highest concentration of test compound was 1.0×10^-4 M. The competition occurred for two hours after which all wells were washed with a plate washer as before. Affinity purified horseradish peroxidase labeled goat anti-biotin antibody was diluted 1:3000 in TBS^+++ /BSA and 125 μL were added to each well. After 30 minutes, the plates were washed and incubated with […]/H2 O2 substrate in 100 mM/L citrate buffer, pH 5.0. The plate was read with a microtiter plate reader at a wavelength of 450 nm and when the maximum-binding control wells reached an absorbance of about 1.0, the final A450 were recorded for analysis. The data were analyzed using a macro written for use with the EXCEL™ spreadsheet program. The mean, standard deviation, and % CV were determined for duplicate concentrations. The mean A450 values were normalized to the mean of four maximum-binding controls (no competitor added) (B-MAX). The normalized values were subjected to a four parameter curve fit algorithm, [Robard et al., Int.

Compound	IC50 [1] [nM]	IC50 [2] [nM]
N=C(N)Nc1cccc(C(=O)Nc2ccc(/C=C/C(=O)O)c(/C=C/C(=O)O)c2)c1 [Example 42, 3-[4-[[[3-[(aminoiminomethyl)amino]phenyl]carbonyl]amino]-2-(2-carboxyethenyl)phenyl]propenoic acid, trifluoroacetate salt]	7.6	15.9
N#Cc1cc(NC(=O)c2cccc(NC(=N)N)c2)ccc1/C=C/C(=O)O [Example 44, 3-[4-[[[3-[(aminoiminomethyl)amino]phenyl]carbonyl]amino]-2-cyanophenyl]propenoic acid, trifluoroacetate salt]	30.2	36.2
CNC(=O)c1cc(NC(=O)c2cccc(NC3=NCCCN3)c2)ccc1/C=C/C(=O)O [Example 45, 3-[2-[(methylamino)carbonyl]-4-[[[3-[(1,4,5,6-tetrahydropyrimidin-2-yl)amino]phenyl]carbonyl]amino]phenyl]propenoic acid, bis(trifluoroacetate) salt]	6.7	759
CCOC(=O)Nc1cc(NC(=O)c2cccc(NC3=NCCCN3)c2)ccc1/C=C/C(=O)O [Example 46, 3-[2-[(ethoxycarbonyl)amino]-4-[[[3-[(1,4,5,6-tetrahydropyrimidin-2-yl)amino]phenyl]carbonyl]amino]phenyl]propenoic acid, trifluoroacetate salt]	7.19	2600
O=C(O)/C=C/c1ccc(NC(=O)c2cccc(NC3=NCCCN3)c2)cc1 [Example 49, 3-[4-[[[3-[(1,4,5,6-tetrahydropyrimidin-2-yl)amino]phenyl]carbonyl]amino]phenyl]propenoic acid, trifluoroacetate salt]	2.18	661
COc1cc(NC(=O)c2cccc(NC3=NCCCN3)c2)ccc1/C=C/C(=O)O [Example 50, 3-[2-methoxy-4-[[[3-[(1,4,5,6-tetrahydropyrimidin-2-yl)amino]phenyl]carbonyl]amino]phenyl]propenoic acid, trifluoroacetate salt]	0.43	772
NC(=O)N=C(N)Nc1cccc(C(=O)Nc2ccc(/C=C/C(=O)O)cc2)c1 [Example 52, 3-[4-[[[3-[[amino[(aminocarbonyl)imino)methyl]amino]phenyl]carbonyl]amino]phenyl]propenoic acid, trifluoroacetate salt]	72.5	133
N=C(N)Nc1cc(C(=O)Nc2ccc(/C=C/C(=O)O)cc2)cc(C(F)(F)F)c1 [Example 53, 3-[4-[[[3-[(aminoiminomethyl)amino]-5-(trifluoromethyl)-phenyl]carbonyl]amino]phenyl]propenoic acid, trifluoroacetate salt]	7.89	232
N=C(N)Nc1cc(C(=O)Nc2ccc(/C=C/C(=O)O)c(Cl)c2)cc(C(F)(F)F)c1 [Example 54, 3-[4-[[[3-[(aminoiminomethyl)amino]-5-(trifluoromethyl)phenyl]carbonyl]amino]-2-chlorophenyl]propenoic acid, trifluoroacetate salt]	12.5	686
COc1cc(NC(=O)c2cc(NC(=N)N)cc(C(F)(F)F)c2)ccc1/C=C/C(=O)O [Example 55, 3-[4-[[[3-[(aminoiminomethyl)amino]-5-(trifluoromethyl)phenyl]carbonyl]amino]-2-methoxyphenyl]propenoic acid, trifluoroacetate salt]	3.62	432
O=C(O)/C=C/c1ccc(NC(=O)c2cccc(NC3=NCCCS3)c2)cc1 [Example 56, 3-[4-[[[3-[(5,6-dihydro-4H-1,3-thiazin-2-yl)amino]phenyl]carbonyl]amino]phenyl]propenoic acid, trifluoroacetate salt]	4.03	656
Cc1cc(/C=C/C(=O)O)cc(C)c1NC(=O)c1cccc(NC2=NCCCS2)c1 [Example 57, 3-[4-[[[3-[(5,6-dihydro-4H-1,3-thiazin-2-yl)amino]phenyl]carbonyl]amino]3,5-dimethylphenyl]propenoic acid, trifluoroacetate salt]	25.8	12800
C/C(=C\C(=O)O)c1ccc(NC(=O)c2cccc(NC(=N)N)c2)cc1 [Example 59, 3-[4-[[[3-[(aminoiminomethyl)amino]phenyl]carbonyl]amino]phenyl]-2-butenoicacid, trifluoroacetate salt]	1270	5140
N=C(N)Nc1cccc(C(=O)Nc2ccc(/C=C(\NC(=O)c3ccccc3)C(=O)O)cc2)c1 [Example 60, 3-[4-[[[3-[(aminoiminomethyl)amino]phenyl]carbonyl]amino]phenyl]-2-[(phenylcarbonyl)amino]propenoic acid, trifluoroacetate salt]	67.3	440
O=C(O)/C=C/c1cccc(CNC(=O)c2cccc(NC3=NCCCN3)c2)c1 [Example 62, 3-[3-[[[[3-[(1,4,5,6-tetrahydropyrimidin-2-yl)amino]phenyl]carbonyl]amino]methyl]phenyl]propenoic acid, monohydrochloride]	2.04	23300
O=C(O)/C=C/c1cccc(CNC(=O)c2cccc(NC(=O)NCc3ccccc3)c2)c1 [Example 64, 3-[3-[[[[3-[[[(phenylmethyl)amino]carbonyl]amino]phenyl]carbonyl]amino]methyl]phenyl]propenoic acid, trifluoroacetate salt]	2180	16200
